According to ChEMBL document CHEMBL4425165, “Discovery of Pyrazolo[1,5-a]pyrimidine TTK Inhibitors: CFI-402257 is a Potent, Selective, Bioavailable Anticancer Agent” (ACS Med Chem Lett, 2016):
Values after ≈ are worked out from the molar mass of the structure shown.

Experiments:
[1] = AUC in athymic CD-1 nude mouse at 10 mg/kg, po by LC-MS/MS analysis; type: ADME, organism-based; conditions: in vivo
[2] = Drug uptake in po dosed mouse plasma; type: ADME, organism-based; conditions: in vivo
[3] = Cmax in athymic CD-1 nude mouse at 10 mg/kg, po by LC-MS/MS analysis; type: ADME, organism-based; set-up: dose 10 mg/kg, route oral; conditions: in vivo
[4] = Dissociation constant, pKa of the compound; type: physicochemical
MDA-MB-468 = experiment: Growth inhibition of human MDA-MB-468 cells measured after 5 days by sulforhodamine B assay; type: functional; conditions: MDA-MB-468, 120 h
[5] = molecular target: T1, Dual specificity protein kinase TTK (Homo sapiens, UniProt P33981)
T1 sequence (P33981 whole entry): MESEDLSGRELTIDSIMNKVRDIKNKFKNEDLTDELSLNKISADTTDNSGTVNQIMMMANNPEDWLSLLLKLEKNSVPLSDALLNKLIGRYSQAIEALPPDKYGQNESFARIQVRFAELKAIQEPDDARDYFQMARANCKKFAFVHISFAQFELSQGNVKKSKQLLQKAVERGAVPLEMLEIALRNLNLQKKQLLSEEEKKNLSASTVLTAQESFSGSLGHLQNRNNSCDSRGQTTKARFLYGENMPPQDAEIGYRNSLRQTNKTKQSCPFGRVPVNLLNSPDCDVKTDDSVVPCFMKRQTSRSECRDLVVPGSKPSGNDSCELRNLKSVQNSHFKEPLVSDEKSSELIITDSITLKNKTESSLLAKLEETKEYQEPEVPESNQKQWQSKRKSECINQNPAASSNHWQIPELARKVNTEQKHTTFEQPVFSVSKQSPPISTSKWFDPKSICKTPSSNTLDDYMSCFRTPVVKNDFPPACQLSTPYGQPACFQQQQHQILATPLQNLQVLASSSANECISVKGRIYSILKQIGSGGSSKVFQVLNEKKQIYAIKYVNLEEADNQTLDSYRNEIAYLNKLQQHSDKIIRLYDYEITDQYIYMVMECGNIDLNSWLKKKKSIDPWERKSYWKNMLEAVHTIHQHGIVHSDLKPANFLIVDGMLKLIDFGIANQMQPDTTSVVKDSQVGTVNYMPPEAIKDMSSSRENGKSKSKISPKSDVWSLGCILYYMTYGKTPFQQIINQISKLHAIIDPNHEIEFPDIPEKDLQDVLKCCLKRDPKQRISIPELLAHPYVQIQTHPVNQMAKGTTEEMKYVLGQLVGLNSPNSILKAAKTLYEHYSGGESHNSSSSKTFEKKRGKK

[6] = AUC (0 to infinity) in beagle dog at 5 mg/kg, po by LC-MS/MS analysis; type: ADME, organism-based, Canis lupus familiaris; set-up: dose 5 mg/kg, route oral, time infinity; conditions: in vivo
[7] = Solubility of the compound at pH 2; type: physicochemical; conditions: buffer
HT-29 [8] = experiment: Antitumor activity against human HT-29 cells xenografted in athymic nude mouse assessed as tumor growth inhibition at 6.5 mg/kg, po qd measured on day 21; type: functional; conditions: HT-29, po, 504 h, read-out: TGI
OVCAR-3 = experiment: Growth inhibition of human OVCAR3 cells measured after 5 days by sulforhodamine B assay; type: functional; conditions: OVCAR-3, 120 h
[9] = Clearance in beagle dog at 1 mg/kg, iv or 5 mg/kg, po by LC-MS/MS analysis; type: ADME, organism-based, Canis lupus familiaris; conditions: in vivo
[10] = Clearance in Sprague-Dawley rat at 1 mg/kg, iv or 5 mg/kg, po by LC-MS/MS analysis; type: ADME, organism-based; conditions: in vivo
HCT-116 [11] = experiment: Growth inhibition of human HCT116 cells measured after 5 days by sulforhodamine B assay; type: functional; conditions: HCT-116, 120 h
[12] = Bioavailability in beagle dog at 5 mg/kg by LC-MS/MS analysis; type: ADME, organism-based, Canis lupus familiaris; conditions: in vivo
HCT-116 [13] = experiment: Antitumor activity against human HCT116 cells xenografted in athymic nude mouse assessed as tumor growth inhibition at 6.5 mg/kg, po qd measured on day 21; type: functional; conditions: HCT-116, po, 504 h, read-out: TGI
[14] = Toxicity in po dosed athymic nude mouse; type: organism-based; conditions: in vivo
[15] = Solubility of the compound at pH 7.4; type: physicochemical; conditions: buffer
[16] = Bioavailability in Sprague-Dawley rat at 5 mg/kg by LC-MS/MS analysis; type: ADME, organism-based; conditions: in vivo
Cytochrome P450 3A4 [17] = molecular target: T2, Cytochrome P450 3A4 (Homo sapiens, UniProt P08684); experiment: Inhibition of CYP3A4 (unknown origin) preincubated for 10 mins followed by addition of BFC as substrate measured after 10 mins in presence of NADP by fluorescence analysis; type: ADME
[18] = AUC (0 to infinity) in Sprague-Dawley rat at 5 mg/kg, po by LC-MS/MS analysis; type: ADME, organism-based; set-up: dose 5 mg/kg, time infinity, route oral; conditions: in vivo
Cytochrome P450 2C9 = Cytochrome P450 2C9 (Homo sapiens, UniProt P11712); experiment: Inhibition of CYP2C9 (unknown origin) preincubated for 10 mins followed by addition of MFC as substrate measured after 45 mins in presence of NADP by fluorescence analysis; type: ADME
Cytochrome P450 2C19 = Cytochrome P450 2C19 (Homo sapiens, UniProt P33261); experiment: Inhibition of CYP2C19 (unknown origin) preincubated for 10 mins followed by addition of MFC as substrate measured after 30 mins in presence of NADP by fluorescence analysis; type: ADME
Cytochrome P450 1A2 = molecular target: T3, Cytochrome P450 1A2 (Homo sapiens, UniProt P05177); experiment: Inhibition of CYP1A2 (unknown origin) preincubated for 10 mins followed by addition of CEC as substrate measured after 15 mins in presence of NADP by fluorescence analysis; type: ADME
T3 sequence (P05177 whole entry): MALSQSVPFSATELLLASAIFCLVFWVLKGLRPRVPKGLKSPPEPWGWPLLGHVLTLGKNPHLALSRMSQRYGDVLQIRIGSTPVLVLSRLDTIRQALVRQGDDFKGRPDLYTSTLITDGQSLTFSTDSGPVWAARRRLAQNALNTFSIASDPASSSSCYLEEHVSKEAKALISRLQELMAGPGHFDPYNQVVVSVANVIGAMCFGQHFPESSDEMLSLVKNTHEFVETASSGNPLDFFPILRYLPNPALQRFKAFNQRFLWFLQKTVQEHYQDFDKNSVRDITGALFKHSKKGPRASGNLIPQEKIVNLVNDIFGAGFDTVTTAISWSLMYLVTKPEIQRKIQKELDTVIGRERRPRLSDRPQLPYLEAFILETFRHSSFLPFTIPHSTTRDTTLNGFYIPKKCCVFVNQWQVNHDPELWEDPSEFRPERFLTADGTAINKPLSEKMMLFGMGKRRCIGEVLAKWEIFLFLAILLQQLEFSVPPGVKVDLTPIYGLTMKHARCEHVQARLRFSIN

Cytochrome P450 2D6 = Cytochrome P450 2D6 (Homo sapiens, UniProt P10635); experiment: Inhibition of CYP2D6 (unknown origin) preincubated for 10 mins followed by addition of AMMC as substrate measured after 30 mins in presence of NADP by fluorescence analysis; type: ADME
[19] = Toxicity in po dosed athymic nude mouse xenografted with human HCT116 cells assessed as induction of overt adverse signs measured on day 21; type: organism-based; conditions: in vivo
HCT-116 [20] = experiment: Antitumor activity against human HCT116 cells xenografted in athymic nude mouse assessed as tumor growth inhibition at 5.5 mg/kg, po qd measured on day 21; type: functional; conditions: HCT-116, po, 504 h, read-out: TGI
Cytochrome P450 3A4 [21] = molecular target: T2, Cytochrome P450 3A4; experiment: Inhibition of CYP3A4 (unknown origin) preincubated for 10 mins followed by addition of DBF as substrate measured after 10 mins in presence of NADP by fluorescence analysis; type: ADME
[22] = Toxicity in po dosed athymic nude mouse xenografted with human HCT116 cells assessed as weight loss measured on day 21; type: organism-based; conditions: in vivo
HCT-116 [23] = experiment: Antitumor activity against human HCT116 cells xenografted in athymic nude mouse assessed as tumor growth inhibition measured on day 21 relative to vehicle-treated control; type: functional
HCT-116 [24] = experiment: Antitumor activity against human HCT116 cells xenografted in athymic nude mouse assessed as tumor growth inhibition at 15 mg/kg, po qd measured on day 21; type: functional; conditions: HCT-116, po, 504 h, read-out: TGI
HT-29 [25] = experiment: Antitumor activity against human HT-29 cells xenografted in athymic nude mouse assessed as tumor growth inhibition at 15 mg/kg, po qd measured on day 21; type: functional; conditions: HT-29, po, 504 h, read-out: TGI

T2 sequence (P08684 whole entry): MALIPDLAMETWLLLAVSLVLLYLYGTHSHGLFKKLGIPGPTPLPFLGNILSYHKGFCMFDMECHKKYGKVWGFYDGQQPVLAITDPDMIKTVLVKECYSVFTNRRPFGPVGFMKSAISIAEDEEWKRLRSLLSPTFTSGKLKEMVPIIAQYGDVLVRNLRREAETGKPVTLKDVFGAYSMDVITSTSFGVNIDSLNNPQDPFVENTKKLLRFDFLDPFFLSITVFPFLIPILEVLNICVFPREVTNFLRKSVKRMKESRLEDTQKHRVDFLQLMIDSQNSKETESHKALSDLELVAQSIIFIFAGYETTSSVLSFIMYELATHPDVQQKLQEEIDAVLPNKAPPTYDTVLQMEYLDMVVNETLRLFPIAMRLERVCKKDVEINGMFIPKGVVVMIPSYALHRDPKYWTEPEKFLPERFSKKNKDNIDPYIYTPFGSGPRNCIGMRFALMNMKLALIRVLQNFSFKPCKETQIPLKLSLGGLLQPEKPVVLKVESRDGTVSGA
Sequence of Cytochrome P450 2C9 (P11712 whole entry): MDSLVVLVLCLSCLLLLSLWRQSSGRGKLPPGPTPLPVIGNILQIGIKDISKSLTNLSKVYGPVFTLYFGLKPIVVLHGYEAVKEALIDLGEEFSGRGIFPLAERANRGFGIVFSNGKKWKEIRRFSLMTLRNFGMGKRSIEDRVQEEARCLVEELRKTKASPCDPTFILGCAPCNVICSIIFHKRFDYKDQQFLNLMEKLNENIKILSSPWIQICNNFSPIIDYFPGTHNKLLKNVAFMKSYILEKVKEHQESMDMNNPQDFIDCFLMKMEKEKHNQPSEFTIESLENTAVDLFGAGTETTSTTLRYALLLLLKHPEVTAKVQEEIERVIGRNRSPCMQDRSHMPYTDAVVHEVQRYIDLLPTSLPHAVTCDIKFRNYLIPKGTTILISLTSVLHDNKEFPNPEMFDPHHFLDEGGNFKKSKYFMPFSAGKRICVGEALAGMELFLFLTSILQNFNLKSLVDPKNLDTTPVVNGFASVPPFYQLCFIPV
Sequence of Cytochrome P450 2C19 (P33261 whole entry): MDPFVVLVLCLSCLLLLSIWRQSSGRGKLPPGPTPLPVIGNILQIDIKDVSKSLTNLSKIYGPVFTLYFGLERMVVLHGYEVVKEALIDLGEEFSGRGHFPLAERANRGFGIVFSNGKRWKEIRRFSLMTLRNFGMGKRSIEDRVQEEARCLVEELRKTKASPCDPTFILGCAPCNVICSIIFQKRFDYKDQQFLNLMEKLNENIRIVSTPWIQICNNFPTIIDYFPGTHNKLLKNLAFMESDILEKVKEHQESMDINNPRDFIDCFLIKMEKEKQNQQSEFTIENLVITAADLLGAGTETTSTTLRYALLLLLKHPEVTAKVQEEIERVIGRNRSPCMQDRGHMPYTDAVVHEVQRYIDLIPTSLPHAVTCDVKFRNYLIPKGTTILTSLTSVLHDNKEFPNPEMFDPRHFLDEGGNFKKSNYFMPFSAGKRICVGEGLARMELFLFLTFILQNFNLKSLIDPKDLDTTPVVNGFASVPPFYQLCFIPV
Sequence of Cytochrome P450 2D6 (P10635 whole entry): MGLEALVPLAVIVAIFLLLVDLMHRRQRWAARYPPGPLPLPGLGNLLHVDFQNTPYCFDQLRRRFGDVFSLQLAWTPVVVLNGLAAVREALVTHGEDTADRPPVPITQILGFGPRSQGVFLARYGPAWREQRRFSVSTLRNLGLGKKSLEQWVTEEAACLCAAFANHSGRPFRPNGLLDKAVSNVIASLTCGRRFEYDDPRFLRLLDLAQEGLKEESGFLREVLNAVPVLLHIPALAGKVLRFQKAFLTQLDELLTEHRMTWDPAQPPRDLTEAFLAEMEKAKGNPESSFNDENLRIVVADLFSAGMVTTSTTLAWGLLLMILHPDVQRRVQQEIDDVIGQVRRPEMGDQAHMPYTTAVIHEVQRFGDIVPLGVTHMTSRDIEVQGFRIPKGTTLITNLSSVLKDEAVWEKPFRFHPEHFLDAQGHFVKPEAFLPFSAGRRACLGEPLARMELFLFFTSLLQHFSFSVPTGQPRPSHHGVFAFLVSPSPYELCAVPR

Compound | AUC [1] [ng·h/mL] | Cmax [3] [ng/mL] | pKa [4] | GI50 (MDA-MB-468) [nM] | IC50 [5] [nM] | AUC(0-inf) [6] [ng·h/mL] | solubility [7] [µg/mL] | GI50 (OVCAR-3) [nM] | clearance [9] [mL/min/kg] | clearance [10] [mL/min/kg] | GI50 (HCT-116 [11]) [nM] | bioavailability [12] [%] | MTD [14] [mg/kg] | solubility [15] [µg/mL] | bioavailability [16] [%] | IC50 (Cytochrome P450 3A4 [17]) [nM] | AUC(0-inf) [18] [ng·h/mL] | further results
Cc1cc(-c2cnn3c(NCCN4CCOCC4)cc(Oc4cccc(F)c4)nc23)ccc1C(=O)NC1CC1 | 3600 | 1200 | 6.7 | 20 | 2.2 | 2200 | 11000 (≈ 20700 µM) | 260 | 29 | 34 | 1 | 77 | 6.5 | 1.5 (≈ 2.83 µM) | 77 | 780 | 1900 | Drug uptake [2]: Dose-dependent effect; inhibition in vivo at 6.5 mg/kg (HT-29 [8]): 41%; inhibition in vivo at 6.5 mg/kg (HCT-116 [13]): 72%
Cc1cc(-c2cnn3c(NC[C@H]4C[C@@](C)(O)C4)cc(Oc4cccnc4)nc23)ccc1C(=O)NC1CC1 [LUVIXASERTIB] | 7500 | 2500 | 3.7 | 2 | – | 25000 | 560 (≈ 1120 µM) | 4 | 4.9 | 14 | 2 | 114 | 6.5 | 3.3 (≈ 6.62 µM) | 53 | 510 | 3400 | IC50 (Cytochrome P450 2C9): 13000 nM; IC50 (Cytochrome P450 2C19): 8000 nM; IC50 (Cytochrome P450 1A2): Not Active; IC50 (Cytochrome P450 2D6): Not Active; inhibition in vivo at 6.5 mg/kg (HT-29 [8]): 60%; Activity [19]: Non-Toxic; inhibition in vivo at 6.5 mg/kg (HCT-116 [13]): 68%; inhibition in vivo at 5.5 mg/kg (HCT-116 [20]): 68%; IC50 (Cytochrome P450 3A4 [21]): 14000 nM; Activity [22]: < 10%; TGI (HCT-116 [23]): Dose-dependent effect
Cc1cc(-c2cnn3c(NCC4CC4)cc(NC4CCCC[C@H]4O)nc23)ccc1C(=O)NC1CC1 (single isomer, unassigned) | 3100 | 1700 | 3.4 | 20 | 2.2 | 14000 | 170 (≈ 358 µM) | 15 | 7.9 | 22 | 9 | 95 | 15 | 5.3 (≈ 11.2 µM) | 94 | 2000 | 3700 | inhibition in vivo at 15 mg/kg (HCT-116 [24]): 72%; inhibition in vivo at 15 mg/kg (HT-29 [25]): 53%
Cc1cc(-c2cnn3c(NC[C@H]4C[C@H](O)C4)cc(NC4CCCC4)nc23)ccc1C(=O)NC1CC1 | 130 | 180 | 3.7 | 35 | 2.4 | – | 930 (≈ 1960 µM) | 68 | – | – | 14 | – | – | 5.4 (≈ 11.4 µM) | – | – | – | –
Cc1cc(-c2cnn3c(NCC4CCOCC4)nc(Oc4ccccc4)nc23)ccc1C(=O)NC1CC1 | 1500 | 890 | 1.6 | 160 | 1.4 | – | 1.5 (≈ 3.01 µM) | 190 | – | – | 14 | – | – | 1.1 (≈ 2.21 µM) | – | – | – | –
Cc1cc(-c2cnn3c(NCC4CCOCC4)cc(Oc4ccccc4)nc23)ccc1C(=O)NC1CC1 | 3100 | 560 | 3.4 | 13 | 2.5 | – | 12 (≈ 24.1 µM) | 22 | – | – | 3 | – | – | 0.5 (≈ 1 µM) | – | – | – | –
Cc1cc(-c2cnn3c(NCC4CCOCC4)cc(N[C@@H](C4CC4)C(C)(C)O)nc23)ccc1C(=O)NC1CC1 | 20000 | 5500 | 3.5 | 60 | 7 | 6900 | 470 (≈ 882 µM) | 80 | 13 | 66 | 20 | 98 | 15 | 10 (≈ 18.8 µM) | 38 | 3000 | 490 | inhibition in vivo at 15 mg/kg (HCT-116 [24]): 70%; inhibition in vivo at 15 mg/kg (HT-29 [25]): 38%
